Format in all cases: cell-based
Experiment [1] concerns TMD8 cells. The experiment is described as follows: Resazurin cell viability assay in DLBCL cells (TMD8). The conditions noted are these: Homo sapiens, TMD8, 72 h, TMD8 cells (BTK dependent), 50% growth inhibition, read-out: TMD8 Prol GI50. Summed up:
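Cells seeded at 1×10^4 per well in triplicate, treated 3 h later for 72 h with an 8-point 1:4 dilution series starting at 1 μM. Resazurin (13 μg/ml final) added for the last 2 h; resorufin fluorescence read at 530/600 nm. GI50 versus vehicle control, usually from ≥2 independent experiments.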
In general terms: Alamar Blue is a resazurin reagent that responds to reducing activity.

The target of experiment [2] is T1, BTK(C481S)-GFP (Homo sapiens, UniProt Q06187+Q96SW2, C481S).
T1 construct: with a mutagenesis reaction on pENTR221-BTK (STOP-Leu); CHYSEL (cis-acting hydrolase element, 2A) remnant after GFP; mCherry is split off as a separate protein (C); expressed in transfected cells; host or cells: TMD8 cells, lentiviral transduction with pLenti6-BTK(C481S)-GFP-CHYSEL-mCherry
The experiment is described as follows: BTK(C481S)-GFP protein abundance flow cytometry assay in TMD8 cells. The conditions noted are these: for BTK (C481S) Amax %: % protein remaining at concentration of maximum degradation; for DC50: concentration at which 50% maximal degradation was observed. As to the method: Compounds of the invention were tested in the following cellular assays. The terms in Table 1 are defined as follows: DC50 refers to the concentration at which 50% maximal degradation was observed; deg Amax is the extent of degradation and the value refers to the % protein remaining at the concentration at which maximum degradation is seen; Prol GI50 refers to the proliferation data and defines the concentration at which 50% growth inhibition was observed compared to the vehicle treated control at the end of the incubation time. TMD8 cells are BTK dependent and OCI-LY3 cells are BTK independent.
BTK(C481S)-GFP Protein Abundance Flow Cytometry Assay in TMD8 Cells:
Degradation of BTK(C481S) was measured in TMD8 cells expressing BTK(C481S)-GFP and mCherry from a stably integrated second generation bicistronic BTK(C481S)-GFP-CHYSEL-mCherry construct. Reduction of the GFP signal measured by flow cytometry served as readout for BTK(C481S) degradation after degrader treatment.
For orientation: In flow cytometry, cells or beads pass a laser one at a time.

Experiment [3] relates to OCI-LY3 cells. The experiment can be described thus: Resazurin cell viability assay in DLBCL cells (OCI-LY3). The conditions noted are these: Homo sapiens, OCI-Ly3, 72 h, OCI-LY3 cells (BTK independent), 50% growth inhibition, read-out: OCI-LY3 Prol GI50. In a few lines:
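BTK-independent OCI-LY3 cells were treated 72 h at 37° C/5% CO2 with an 8-point 1:4 series from 10 μM, in triplicate, versus DMSO. Viability was read by resazurin (13 μg/ml final, 2 h) fluorescence at 530/600 nm. GI50 was curve-fitted, typically from ≥2 independent experiments.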

A value given as a limit tells only on which side of the number the result lay.

One may read the GI50 as the concentration that inhibits growth by half. The term DC50 denotes the concentration giving 50% degradation.

T1 sequence (Q06187 whole entry C481S): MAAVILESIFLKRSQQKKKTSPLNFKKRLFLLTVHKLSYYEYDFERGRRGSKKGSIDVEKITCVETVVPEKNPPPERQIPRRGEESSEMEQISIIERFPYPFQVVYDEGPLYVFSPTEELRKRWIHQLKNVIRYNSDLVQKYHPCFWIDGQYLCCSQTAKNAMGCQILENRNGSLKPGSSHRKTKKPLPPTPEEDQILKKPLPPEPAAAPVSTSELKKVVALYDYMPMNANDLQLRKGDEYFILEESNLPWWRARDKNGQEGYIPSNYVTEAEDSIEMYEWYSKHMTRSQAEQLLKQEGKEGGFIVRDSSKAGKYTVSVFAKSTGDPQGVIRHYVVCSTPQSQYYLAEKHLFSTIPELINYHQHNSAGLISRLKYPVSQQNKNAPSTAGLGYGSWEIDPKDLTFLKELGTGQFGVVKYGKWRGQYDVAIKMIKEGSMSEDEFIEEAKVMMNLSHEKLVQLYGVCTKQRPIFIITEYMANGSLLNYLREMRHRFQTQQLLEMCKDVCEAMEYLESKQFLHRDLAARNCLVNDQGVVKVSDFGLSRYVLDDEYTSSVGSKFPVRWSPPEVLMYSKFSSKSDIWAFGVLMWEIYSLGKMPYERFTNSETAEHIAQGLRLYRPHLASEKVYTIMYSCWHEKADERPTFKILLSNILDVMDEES
T1 sequence (Q96SW2 whole entry): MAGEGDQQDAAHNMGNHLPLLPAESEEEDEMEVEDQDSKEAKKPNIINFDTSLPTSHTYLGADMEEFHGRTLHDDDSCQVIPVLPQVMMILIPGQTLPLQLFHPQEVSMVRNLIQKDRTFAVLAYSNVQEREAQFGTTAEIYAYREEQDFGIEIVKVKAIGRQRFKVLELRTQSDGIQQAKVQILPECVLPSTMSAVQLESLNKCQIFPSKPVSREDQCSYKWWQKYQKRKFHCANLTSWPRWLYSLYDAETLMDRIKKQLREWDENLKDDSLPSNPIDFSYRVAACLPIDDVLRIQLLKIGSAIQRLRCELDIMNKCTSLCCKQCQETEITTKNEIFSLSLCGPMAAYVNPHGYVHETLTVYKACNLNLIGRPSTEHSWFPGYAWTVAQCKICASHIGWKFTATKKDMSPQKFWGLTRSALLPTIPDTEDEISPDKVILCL
T1 sequence (Q16531 whole entry partner): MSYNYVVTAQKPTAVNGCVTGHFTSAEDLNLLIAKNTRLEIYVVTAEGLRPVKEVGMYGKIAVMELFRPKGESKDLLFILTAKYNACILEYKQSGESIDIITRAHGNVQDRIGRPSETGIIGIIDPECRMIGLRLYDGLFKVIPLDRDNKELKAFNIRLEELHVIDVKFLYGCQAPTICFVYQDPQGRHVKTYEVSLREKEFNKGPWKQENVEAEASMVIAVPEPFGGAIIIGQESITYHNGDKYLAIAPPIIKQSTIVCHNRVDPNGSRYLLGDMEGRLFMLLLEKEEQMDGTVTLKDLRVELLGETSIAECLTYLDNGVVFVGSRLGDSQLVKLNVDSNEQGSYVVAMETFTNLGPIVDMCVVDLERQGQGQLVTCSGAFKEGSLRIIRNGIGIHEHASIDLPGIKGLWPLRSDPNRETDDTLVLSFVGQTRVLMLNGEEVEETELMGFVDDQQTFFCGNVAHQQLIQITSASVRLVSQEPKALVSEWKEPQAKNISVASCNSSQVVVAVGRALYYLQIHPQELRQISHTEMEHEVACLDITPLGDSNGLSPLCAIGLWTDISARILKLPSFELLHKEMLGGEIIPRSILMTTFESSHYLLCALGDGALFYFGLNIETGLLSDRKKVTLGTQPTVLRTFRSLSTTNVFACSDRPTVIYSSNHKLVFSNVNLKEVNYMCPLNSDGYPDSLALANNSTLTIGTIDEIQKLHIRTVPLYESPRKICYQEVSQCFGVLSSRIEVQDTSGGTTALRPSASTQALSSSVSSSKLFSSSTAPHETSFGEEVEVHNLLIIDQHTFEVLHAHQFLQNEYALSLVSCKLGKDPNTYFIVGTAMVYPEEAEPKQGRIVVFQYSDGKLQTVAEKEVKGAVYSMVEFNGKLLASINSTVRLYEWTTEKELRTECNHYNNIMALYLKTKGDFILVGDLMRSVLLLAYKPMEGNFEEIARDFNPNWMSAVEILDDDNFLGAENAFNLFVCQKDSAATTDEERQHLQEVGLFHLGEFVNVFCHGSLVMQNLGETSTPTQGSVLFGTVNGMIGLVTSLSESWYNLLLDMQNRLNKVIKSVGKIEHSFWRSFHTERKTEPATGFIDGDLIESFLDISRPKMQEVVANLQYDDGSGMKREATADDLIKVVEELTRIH

For `COc1ccc(C(=O)N2CCC3(CCN(CCc4ccc(-c5cc6c(-c7cc(F)cc(NC(=O)N8C[C@H](CC(C)C)[C@@H](O)C8)c7C)ncnc6[nH]5)cc4)CC3)CC2)cc1N1CCC(=O)NC1=O` [Compound 15, (3R,4S)—N-(3-(6-(4-(2-(9-(3-(2,4-Dioxotetrahydropyrimidin-1(2H)-yl)-4-methoxybenzoyl)-3,9-diazaspiro[5.5]undecan-3-yl)ethyl)phenyl)-7H-pyrrolo[2,3-d]pyrimidin-4-yl)-5-fluoro-2-methylphenyl)-3-hydroxy-4-isobutylpyrrolidine-1-carboxamide], the GI50 in experiment [1] amounted to 0.22 nM. For the same molecule, in experiment [2], the “BTK (C481S) Amax %” value was found to be 3.0% and it took 0.9 nM to reach half-maximal degradation (DC50). For the same molecule, the GI50 in experiment [3] is 7.25 µM.
Regarding `COc1ccc(C(=O)N2CCC3(CCN(CCc4ccc(-c5cc6c(-c7cc(F)cc(NC(=O)N8C[C@@H](CC(C)C)[C@H](O)C8)c7C)ncnc6[nH]5)cc4)CC3)CC2)cc1N1CCC(=O)NC1=O` [Compound 19, (3S,4R)—N-(3-(6-(4-(2-(9-(3-(2,4-dioxotetrahydropyrimidin-1(2H)-yl)-4-methoxybenzoyl)-3,9-diazaspiro[5.5]undecan-3-yl)ethyl)phenyl)-7H-pyrrolo[2,3-d]pyrimidin-4-yl)-5-fluoro-2-methylphenyl)-3-hydroxy-4-isobutylpyrrolidine-1-carboxamide], the 50% growth inhibitory concentration (GI50) in experiment [1] was 4.87 nM. Also, in experiment [2], the “BTK (C481S) Amax %” value is 2.9% and the DC50 is 16 nM. For the same molecule, the GI50 in experiment [3] was over 10 µM.
`COc1ccc(C(=O)N2CCC(CCN3CCC(OCc4ccc(-c5cc6c(-c7cc(F)cc(NC(=O)N8C[C@H](CC(C)C)[C@@H](O)C8)c7C)ncnc6[nH]5)cc4)CC3)CC2)cc1N1CCC(=O)NC1=O` [Compound 22, (3R,4S)—N-(3-(6-(4-(((1-(2-(1-(3-(2,4-Dioxotetrahydropyrimidin-1 (2H)-yl)-4-methoxybenzoyl)piperidin-4-yl)ethyl)piperidin-4-yl)oxy)methyl)phenyl)-7H-pyrrolo[2,3-d]pyrimidin-4-yl)-5-fluoro-2-methylphenyl)-3-hydroxy-4-isobutylpyrrolidine-1-carboxamide]: the GI50 in experiment [1] worked out at 0.23 nM. In experiment [2], the “BTK (C481S) Amax %” value worked out at 2.1% and half-maximal degradation (DC50) was put at 0.4 nM. Further, in experiment [3], the GI50 is 6.68 µM.
